Paper PMC11658185, “Analysis of the quadruple lsu mutant reveals molecular determinants of the role of LSU proteins in sulfur assimilation in Arabidopsis” (The Plant Journal, 2024)

Molecular target: T1, SiR (sulfite reductase; His-SiR) (Arabidopsis thaliana, UniProt Q9LZ66)
T1 construct: N-terminal His tag, expressed in E. coli Rosetta (DE3), expected size 68 kDa; truncations printed up to residue 642
T1 sequence (Q9LZ66 62-642): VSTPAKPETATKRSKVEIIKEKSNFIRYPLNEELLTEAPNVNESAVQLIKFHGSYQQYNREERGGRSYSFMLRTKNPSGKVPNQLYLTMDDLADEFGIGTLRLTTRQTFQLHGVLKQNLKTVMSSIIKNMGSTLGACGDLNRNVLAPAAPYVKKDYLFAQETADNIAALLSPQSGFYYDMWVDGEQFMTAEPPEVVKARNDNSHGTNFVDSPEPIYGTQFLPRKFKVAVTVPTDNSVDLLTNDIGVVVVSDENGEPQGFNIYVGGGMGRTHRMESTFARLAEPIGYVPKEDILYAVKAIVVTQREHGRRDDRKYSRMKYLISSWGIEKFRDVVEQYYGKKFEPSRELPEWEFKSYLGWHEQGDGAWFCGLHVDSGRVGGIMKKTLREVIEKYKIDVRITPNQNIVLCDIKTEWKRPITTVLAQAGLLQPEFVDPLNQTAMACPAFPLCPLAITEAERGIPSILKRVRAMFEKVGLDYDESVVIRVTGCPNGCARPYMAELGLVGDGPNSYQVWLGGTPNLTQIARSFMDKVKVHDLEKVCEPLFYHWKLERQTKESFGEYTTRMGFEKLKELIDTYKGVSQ
Assay: coupled assay: sulfide trapped as cysteine by O-acetylserine(thiol)lyase, ninhydrin, OD […] nm; sulfite varied
Assay type: biochemical
Details: pH 7.5, 25 mM HEPES, RT, 1 h; methyl viologen reduced by dithionite as electron donor; O-acetylserine 5 mM; without LSU1

## O=S(O)O [sulfite]
  coupled assay: sulfide trapped as cysteine by O-acetylserine(thiol)lyase, ninhyd: Specific activities of the enzyme at various concentrations of: electron donor methyl‐viologen (a), substrate sulfite (b)
